Reference: US20080119452A1, “METHODS FOR ENHANCING COGNITIVE FUNCTION” (priority 2006, published 2008)
Like-named read-outs stand apart in the source and are kept apart here.

Key:
[1] = system: rats; assay: Object recognition task (time spent on novel vs familiar object); format: in vivo, rat
Text: Effect of Compounds in Object Recognition Task
Spending more time on the novel than on the familiar object indicates memory for the latter. Vehicle-treated rats spent a mean of 63% of time on the novel object. The means for all of the doses of test articles were numerically higher with values of: 70 and 78% for galantamine, 71 and 75% for a first representative compound of formula IV, and 73 and 81% for a second representative compound of formula IV.
Ennaceur A and Delacour J (1988) A new one-trial test for neurobiological studies of memory in rats. 1: Behavioral data. Behav Brain Res 31: 47-59.

[2] = system: mouse; settings: sub-optimal analgesic dose, cited from earlier work

Compound | % Time Novel Object (Mean ± SEM) ([1]; 0.3 mg/kg p.o., 0.3 mg/kg) | % Time Novel Object (Mean ± SEM) ([1]; 0.3 mg/kg p.o., listed as galantamine, 0.3 mg/kg) | % Time Novel Object (Mean ± SEM) ([1]; 1.7 mg/kg p.o., 1.7 mg/kg) | % Time Novel Object (Mean ± SEM) ([1]; 1.7 mg/kg p.o., listed as galantamine, 1.7 mg/kg) | effect on memory consolidation ([2]; 3 nmol/mouse i.c.v.) | effect on memory consolidation ([2]; 100 mg/kg oral administration)
COc1ccc2c3c1O[C@H]1C[C@@H](O)C=C[C@@]31CCN(C)C2 [Galantamine, galantamine] | 70 ± 6% | 70% | 78 ± 5 % | 78% | – | –
rubiscolin-6 | – | – | – | – | enhance memory consolidation | enhance memory consolidation
